Reference: patent US20230123334A1, “AMINO LIPID COMPOUND, PREPARATION METHOD THEREFOR, AND APPLICATION THEREOF” (SHENZHEN SHENXIN BIOTECHNOLOGY CO., LTD., priority 2020, published 2023)

Experiments:
Type in all cases: cell-based
[1] = tested on: MCF7 cells; test: Transfection of MCF7 cell line, mRNA vectors; conditions: 50 ng EGFP mRNA per well
Summary of the method: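 MCF7 cells in DMEM with fetal bovine serum were transfected with 50 ng EGFP mRNA per well. Read-out was the percentage of GFP-positive cells among total Hoechst-stained nuclei, with Lipofectamine2000 as positive control.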

[2] = tested on: embryonic stem cells (hESC2); test: Screening as DNA vectors in embryonic stem cells, flow cytometry; conditions: 75 ng plasmid DNA, 48 hours after transfection, flow cytometer
Source text: (§1) Cell line: embryonic stem cells (hESC2, cultured according to reported methods: Stem Cells, 2005, 23, 544-549)
(§2) Medium: mTeSR1 (STEMCELL)
(§3) Mode of screening: cell transfection on 96-well plates
(§4) Detection (readout): percentage of the number of GFP fluorescent cells relative to the total number of cells. Lipofectamine Stem was used as the positive control.
Method: an 8-channel pipette was used for sample addition. The contents shown were for a single well of a 96-well flat plate.
1. Stem cells were cultured to 3-5×10^4 cells per well in a 96-well plate treated with matrigel.
2. The compound (0.01 mmol) prepared in Example 1 was dissolved in 1 mL of anhydrous ethanol. After ultrasonically dissolved, 10 μL of the resultant amino lipid solution in ethanol was taken and mixed with 5 μL of DOPE solution in ethanol ([…]). The obtained mixture was then added with 35 μL of 0.2 M sodium acetate buffer (pH 5.6), and vortexed at a constant rotating speed for 30 s. Then, 4 μL was taken from the obtained product and added to 46 μL of 0.02 M sodium acetate buffer (pH 5.6), and vortexed at a constant rotating speed for 30 s to form a liposome solution. 5 μL of this liposome solution was mixed with 75 ng of plasmid DNA (pSin-EGFP-IRES-Puro) dissolved in 5 μL of 0.02 M sodium acetate buffer, and allowed to stay at room temperature for 30 min to form a lipid/DNA transfection complex.
3. 10 μL of the lipid/DNA transfection complex was incubated at room temperature for 30 min, followed by addition of 90 μL mTeSR1 medium was added and mixing with a pipette. 100 μL of the mixture was added to separate wells of a 96-well culture plate and placed in an incubator containing 5% CO2 at 37° C.
4. 48 hours after transfection, the cells were digested with 0.05% Trypsin-EDTA. The cells were resuspended in a PBS buffer and filtered. The cell suspension was placed in a flow cytometer and the number of GFP-expressing cells in no less than 2000 cells was measured so as to obtain the absolute efficiency of cell transfection. The relative efficiency of cell transfection was obtained by comparing the cell transfection efficiency with the positive control Lipofectamine Stem.

[3] = tested on: Hela cells; test: Transfection of Hela cell line, DNA vectors; conditions: 75 ng plasmid DNA, GFP cells / total cells
Summary of the method: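 Amino lipid/DOPE liposomes in sodium acetate pH 5.6 were complexed with 75 ng psin-EGFP-IRES-Puro plasmid for 30 min at room temperature, then mixed with 3-5×10^4 Hela cells in DMEM/10% FBS at 37° C. Hoechst stain after 20-24 h, imaging after a further 20-24 h. Efficiency = GFP-positive cells / total nuclei.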

[4] = tested on: cardiomyocytes; test: Screening as DNA vectors in cardiomyocytes; design: concentration or dose not given beside the values; conditions: method as Example 4
Description: Cell line: cardiomyocytes (obtained from induced differentiation of hESC according to reported methods: J. Mol. Cell. Cardiol. 2011, 51, 288-298)
(§5) Medium: DMEM supplemented with 10% fetal bovine serum (Invitrogen)
as §3
(§6) Detection (readout): percentage of the number of GFP fluorescent cells relative to the total number of cells (the total number of cells was determined using nucleus dye Hoechst). Lipofectamine Stem (Invitrogen) was used as the positive control, according to the manufacturer's instructions.
Method: the experimental method was basically the same with Example 4.

[5] = tested on: embryonic stem cells (hESC2); test: Screening as mRNA vectors in embryonic stem cells; conditions: 50 ng EGFP mRNA per well
Description: as §1, §2
Mode of screening: cell transfection on 96-well plate
as §4
Method: the experimental method was basically the same with Example 10, and the mass of EGFP mRNA for transfection was 50 ng per well.

[6] = tested on: cardiomyocytes; test: Screening as mRNA vectors in cardiomyocytes; conditions: 50 ng EGFP mRNA per well
Description: Cell line: cardiomyocytes (obtained from induced differentiation of hESC according to reported methods: J Mol. Cell. Cardiol. 2011, 51, 288-298)
as §5, §3, §6
Method: the experimental method was basically the same with Example 4, and the mass of EGFP mRNA for transfection was 50 ng per well.

[7] = tested on: Hela cells; test: Transfection of Hela cell line, mRNA vectors; conditions: 50 ng EGFP mRNA per well
Summary of the method: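 HeLa cells in DMEM with 10% FBS transfected with 50 ng EGFP mRNA per well. Readout is percentage of GFP-positive cells among total cells counted by Hoechst nuclear stain; Lipofectamine2000 served as positive control.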

[8] = tested on: MCF7 cells; test: Transfection of MCF7 cell line, DNA vectors; design: concentration or dose not given beside the values; conditions: plasmid DNA, GFP cells / total cells
Summary of the method: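 MCF7 cells in DMEM with fetal bovine serum were transfected in 96-well format. Read-out was the percentage of GFP-fluorescent cells among total cells counted by Hoechst nuclear stain. Lipofectamine2000 served as positive control.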

| SMILES | Absolute mRNA transfection efficiency in MCF7 cells [1] [%] | Absolute DNA transfection efficiency in embryonic stem cells [2] [%] | Absolute DNA transfection efficiency in Hela cells [3] [%] | Absolute DNA transfection efficiency in cardiomyocytes [4] [%] | Absolute mRNA transfection efficiency in embryonic stem cells [5] [%] | Absolute mRNA transfection efficiency in cardiomyocytes [6] [%] | Absolute mRNA transfection efficiency in Hela cells [7] [%] | Absolute DNA transfection efficiency in MCF7 cells [8] [%] |
| --- | --- | --- | --- | --- | --- | --- | --- | --- |
| CCCCCCCCCCCNc1nc(NCC2CCN(C)CC2)nc(SCCCCCCCC)n1 [Compound S8N11D10] | 4.4 | 0.7 | 23.4 | 6.6 | 0.7 | 16.8 | 23.4 | 45.3 |
| CCCCCCCCCCCCSc1nc(NCCCN(C)C)nc(SCCCCCCCC)n1 [Compound S8S12D6] | 50.0 | 3.3 | 6.3 | 1.6 | 7.1 | 44.9 | 6.3 | 34.4 |
| CCCCCCCCCCCSc1nc(NCC2CCN(C)CC2)nc(SCCCCCCCC)n1 [Compound S8S11D10] | 40.4 | 0.7 | 21.8 | 1.4 | 37.4 | 20.8 | 21.8 | 37.2 |
| CCCCCCCCCCCNc1nc(NCCCN2CCN(C)CC2)nc(SCCCCCCCC)n1 [Compound S8N11D9] | 6.6 | 0.5 | 31.9 | 0.6 | 1.0 | 31.6 | 31.9 | 45.4 |
| CCCCCCCCCCCSc1nc(NCCCCCCCCC)nc(NCCCN2CCN(C)CC2)n1 [Compound S11N9D9] | 27.3 | 1.4 | 11.8 | 0.3 | 33.5 | 21.0 | 11.8 | 33.5 |
| CCCCCCCCCCCSc1nc(NCCCCCCCC)nc(NCCN2CCN(C)CC2)n1 [Compound S11N8D5] | 21.2 | 4.0 | 9.6 | 9.1 | 6.9 | 32.2 | 9.6 | 20.1 |
| CCCCCCCCCCCNc1nc(NCCCN(C)C)nc(SCCCCCCCCC)n1 [Compound S9N11D6] | 37.2 | 1.4 | 27.7 | 1.9 | 5.8 | 5.0 | 27.7 | 32.6 |
| CCCCCCCCCCCSc1nc(NCCCN2CCN(C)CC2)nc(SCCCCCCCC)n1 [Compound S8S11D9] | 34.9 | 1.0 | 6.8 | 0.8 | 18.1 | 25.5 | 6.8 | 59.8 |
| CCCCCCCCCCCSc1nc(NCCCCCCCC)nc(NCCCN2CCOCC2)n1 [Compound S11N8D8] | 7.8 | 0.0 | 6.1 | 1.2 | 1.3 | 0.9 | 6.1 | 0.1 |
| CCCCCCCCCCCNc1nc(NCCCN2CCOCC2)nc(SCCCCCCCCC)n1 [Compound S9N11D8] | 2.7 | 0.6 | 13.9 | 0.8 | 5.9 | 4.4 | 13.9 | 13.1 |
| CCCCCCCCCCCSc1nc(NCCCCCCCC)nc(NCC2CCN(C)CC2)n1 [Compound S11N8D10] | 38.9 | 12.6 | 16.7 | 6.6 | 35.4 | 41.7 | 16.7 | 25.6 |
| CCCCCCCCCCCSc1nc(NCCN2CCCC2)nc(SCCCCCCCC)n1 [Compound S8S11D3] | 20.4 | 0.7 | 3.3 | 1.9 | 21.4 | 21.0 | 3.3 | 2.7 |
| CCCCCCCCCCCCSc1nc(NCCN2CCCC2)nc(SCCCCCCCC)n1 [Compound S8S12D3] | 6.7 | 1.5 | 5.5 | 0.3 | 17.9 | 36.7 | 5.5 | 1.9 |
| CCCCCCCCCCCCNc1nc(NCCCN2CCN(C)CC2)nc(SCCCCCCCCC)n1 [Compound S9N12D9] | 16.4 | 2.7 | 14.4 | 0.0 | 7.6 | 32.0 | 14.4 | 20.0 |
